In ChEMBL document CHEMBL6115029, “Discovery of Daraxonrasib (RMC-6236), a Potent and Orally Bioavailable RAS(ON) Multi-selective, Noncovalent Tri-complex Inhibitor for the Treatment of Patients with Multiple RAS-Addicted Cancers” (J Med Chem, 2025):
pEC50, pIC50, pKd: −log10 of the molar value. ≈ marks a conversion by molar mass, not a printed value.

Tests used:
[1] = Metabolic stability in mouse liver microsomes assessed as half-life at 2 uM measured upto 60 mins in presence of NADPH by LC-MS/MS analysis; format: ADME, Microsome
[2] = Apparent permeability across apical to basolateral side in human Caco-2 cells at 5 uM incubated for 2 hrs by LC-MS/MS analysis; format: ADME, cell-based
[3] = Inhibition of 6His-tagged KRAS G12V mutant(1 to 169 residues)/GST-tagged GMPPNP-bound BRAF RBD (155 to 229 reisudes)/Cyclophilin A (unknown origin) tri-complex protein-protein interaction incubated for 3 hrs by TR-FERT based disruption assay; design: species or system Homo sapiens
[4] = Oral bioavailability in female BALB/c mouse plasma at 10 mg/kg measured after 24 hrs by LC-MS/MS analysis; format: ADME, organism-based
[5] = system: ASPC1; assay: Cytotoxicity against human ASPC1 cells harboring KRAS G12D mutant cultured as 2D cells assessed as reduction in cell viability incubated for 120 hrs by CellTiter-Glo luminescence assay; format: functional, cell-based; settings: ASPC1, 120 h
[6] = Lipophilicity, logD of compound at pH 7.4 by Agilent 1290 II uPLC analysis; format: physicochemical; settings: buffer
[7] = biological target: Peptidyl-prolyl cis-trans isomerase A (Homo sapiens, UniProt P62937); assay: Binding affinity to Avi-tagged Cyclophilin A (unknown origin) assessed as dissociation constant by SPR analysis
Peptidyl-prolyl cis-trans isomerase A, sequence (P62937 whole entry): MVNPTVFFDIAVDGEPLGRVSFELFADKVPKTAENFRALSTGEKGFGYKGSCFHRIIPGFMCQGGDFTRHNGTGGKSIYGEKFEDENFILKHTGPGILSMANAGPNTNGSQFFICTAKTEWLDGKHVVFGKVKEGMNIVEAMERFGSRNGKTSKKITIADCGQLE

[8] = system: NCI-H358; assay: Cytotoxicity against human NCI-H358 cells harboring KRAS G12C mutant cultured as 2D cells assessed as reduction in cell viability incubated for 120 hrs by CellTiter-Glo luminescence assay; format: functional, cell-based; settings: NCI-H358, 120 h
[9] = Oral bioavailability in female BALB/c mouse blood at 10 mg/kg measured after 24 hrs by LC-MS/MS analysis; format: ADME, organism-based
[10] = system: A-375; assay: Cytotoxicity against human A-375 cells assessed as reduction in cell viability incubated for 120 hrs by CellTiter-Glo luminescence assay; format: functional, cell-based; settings: A-375, 120 h
[11] = Inhibition of 6His-tagged wildtype KRAS (1 to 169 residues)/GST-tagged GMPPNP-bound BRAF RBD (155 to 229 reisudes)/Cyclophilin A (unknown origin) tri-complex protein-protein interaction incubated for 3 hrs by TR-FERT based disruption assay; design: species or system Homo sapiens
[12] = Inhibition of ERK1/2 phosphorylation in human CAPAN-1 cells harboring KRAS G12V mutant incubated for 4 hrs by AlphaLISA assay; format: cell-based; settings: CAPAN-1, 4 h
[13] = Efflux ratio of apparent permeability in human Caco-2 cells at 5 uM incubated for 2 hrs by LC-MS/MS analysis; format: ADME, cell-based
[14] = system: CAPAN-1; assay: Cytotoxicity against human CAPAN-1 cells harboring KRAS G12V mutant cultured as 2D cells assessed as reduction in cell viability incubated for 120 hrs by CellTiter-Glo luminescence assay; format: functional, cell-based; settings: CAPAN-1, 120 h
[15] = Clearance in female BALB/c mouse blood at 1 mg/kg, iv measured after 24 hrs by LC-MS/MS analysis; format: ADME, organism-based
[16] = Inhibition of 6His-tagged KRAS G12D mutant(1 to 169 residues)/GST-tagged GMPPNP-bound BRAF RBD (155 to 229 reisudes)/Cyclophilin A (unknown origin) tri-complex protein-protein interaction incubated for 3 hrs by TR-FERT based disruption assay; design: species or system Homo sapiens
[17] = Inhibition of ERK1/2 phosphorylation in human ASPC1 cells harboring KRAS G12D mutant incubated for 4 hrs by AlphaLISA assay; format: cell-based; settings: ASPC1, 4 h
[18] = system: NCI-H1975; assay: Cytotoxicity against human NCI-H1975 cells harboring wildtype KRAS cultured as 2D cells assessed as reduction in cell viability incubated for 120 hrs by CellTiter-Glo luminescence assay; format: functional, cell-based; settings: NCI-H1975, 120 h
[19] = Inhibition of ERK1/2 phosphorylation in human NCI-H358 cells harboring KRAS G12C mutant incubated for 4 hrs by AlphaLISA assay; format: cell-based; settings: NCI-H358, 4 h
[20] = Clearance in female BALB/c mouse plasma at 1 mg/kg, iv measured after 24 hrs by LC-MS/MS analysis; format: ADME, organism-based
[21] = Inhibition of 6His-tagged KRAS G12C mutant(1 to 169 residues)/GST-tagged GMPPNP-bound BRAF RBD (155 to 229 reisudes)/Cyclophilin A (unknown origin) tri-complex protein-protein interaction incubated for 3 hrs by TR-FERT based disruption assay; design: species or system Homo sapiens
[22] = Kinetic solubility of compound in PBS at pH 7.4 measured after 5 hrs by UV analysis; format: physicochemical; settings: read-out: Kinetic_solubility
[23] = Binding affinity to Cyclophilin A/Avi-tagged KRAS G12D mutant (1 to 169 residues) (unknown origin) assessed as dissociation constant by SPR analysis; design: species or system Homo sapiens
[24] = Binding affinity to Cyclophilin A/Avi-tagged KRAS G12C mutant (1 to 169 residues) (unknown origin) assessed as dissociation constant by SPR analysis; design: species or system Homo sapiens
[25] = Binding affinity to Cyclophilin A/Avi-tagged KRAS G12V mutant (1 to 169 residues) (unknown origin) assessed as dissociation constant by SPR analysis; design: species or system Homo sapiens
[26] = Oral bioavailability in female BALB/c mouse at 10 mg/kg measured after 24 hrs by LC-MS/MS analysis; format: ADME, organism-based; settings: in vivo
[27] = Clearance in female BALB/c mouse at 1 mg/kg, iv measured after 24 hrs by LC-MS/MS analysis; format: ADME, organism-based; settings: in vivo
[28] = Half-life in female BALB/c mouse at 1 mg/kg, iv measured after 24 hrs by LC-MS/MS analysis; format: ADME, organism-based; settings: in vivo

Structure (SMILES)	half-life at 2 µM [1]	Papp A→B at 2 h, 5 µM [2]	pIC50 [3]	pEC50 [5]	logD [6]	pKd [7]	pEC50 [8]	bioavailability [9]	pEC50 [10]	pIC50 [11]	pEC50 [12]	efflux ratio at 2 h, 5 µM [13]	pEC50 [14]	clearance [15]	pIC50 [16]	pEC50 [17]	pEC50 [18]	pEC50 [19]	pIC50 [21]	solubility kinetic at 5 h [22]	further results
CCn1c(-c2cc(N3CCN(CCOC)CC3)cnc2[C@H](C)OC)c2c3cc(ccc31)-c1csc(n1)C[C@H](NC(=O)[C@H]1C[C@@H]1C)C(=O)N1CCC[C@H](N1)C(=O)OCC(C)(C)C2	1.72 h	1 ×10⁻⁶ cm/s	7.11	8.21	4.7	6.89	8.74	71%	< 5.00	6.82	9.10	9	8.55	6.67 mL/min/kg	6.41	8.11	8.03	8.47	7.27	45 µM (≈ 38.5 µg/mL)	bioavailability [4]: 57%; clearance [20]: 30 mL/min/kg
CCn1c(-c2cccnc2[C@H](C)OC)c2c3cc(ccc31)-c1cccc(c1)C[C@H](NC(=O)[C@H](C(C)C)N(C)C(C)=O)C(=O)N1CCC[C@H](N1)C(=O)OCC(C)(C)C2	–	–	5.45	5.36	–	5.94	5.82	–	–	–	–	–	5.94	–	4.58	–	< 5.00	–	5.69	–	pKd [23]: 4.97; pKd [24]: 5.55; pKd [25]: 5.31
CCn1c(-c2cccnc2[C@H](C)OC)c2c3cc(ccc31)-c1csc(n1)C[C@H](NC(=O)C1CC1)C(=O)N1CCC[C@H](N1)C(=O)OCC(C)(C)C2	1.57 h	4.3 ×10⁻⁶ cm/s	6.52	6.07	4.8	4.73	6.39	–	5.23	6.21	6.83	1.6	6.31	–	5.71	5.47	6.73	6.78	6.68	15 µM (≈ 10.5 µg/mL)	bioavailability [26]: 53%; clearance [27]: 5 mL/min/kg; half-life [28]: 2 h
CCn1c(-c2cc(N3CC4CC(C3)N4C)cnc2[C@H](C)OC)c2c3cc(ccc31)-c1csc(n1)C[C@H](NC(=O)[C@H]1C[C@@H]1C)C(=O)N1CCC[C@H](N1)C(=O)OCC(C)(C)C2	> 2 h	0.2 ×10⁻⁶ cm/s	7.15	8.28	3.9	7.64	8.77	5.7%	5.53	6.94	9.30	96	8.68	16.7 mL/min/kg	6.57	8.36	–	8.68	7.28	130 µM (≈ 107 µg/mL)	–
CCn1c(-c2cc(N3CCN(C4COC4)CC3)cnc2[C@H](C)OC)c2c3cc(ccc31)-c1csc(n1)C[C@H](NC(=O)[C@H]1C[C@@H]1C)C(=O)N1CCC[C@H](N1)C(=O)OCC(C)(C)C2	> 2 h	0.6 ×10⁻⁶ cm/s	7.26	8.39	–	7.11	9.10	49%	< 5.00	6.99	9.15	12	8.74	6.67 mL/min/kg	6.60	8.38	9.05	8.54	7.40	56 µM (≈ 47.8 µg/mL)	bioavailability [4]: 27%; clearance [20]: 51.7 mL/min/kg
CCn1c(-c2cccnc2[C@H](C)OC)c2c3cc(ccc31)-c1csc(n1)C[C@H](NC(=O)[C@H](C(C)C)N(C)C(C)=O)C(=O)N1CCC[C@H](N1)C(=O)OCC(C)(C)C2	0.1 h	0.02 ×10⁻⁶ cm/s	5.45	≤ 6.15	–	6.50	6.70	–	< 5.00	5.31	7.49	13.6	6.83	–	≤ 4.67	6.07	7.24	6.94	5.71	6 µM (≈ 4.72 µg/mL)	pKd [23]: 5.30; bioavailability [26]: ≤ 0.4%; clearance [27]: 95 mL/min/kg; half-life [28]: 0.6 h; pKd [24]: 5.81; pKd [25]: 5.57
CCn1c(-c2cc(N3CCN(C4CC4)CC3)cnc2[C@H](C)OC)c2c3cc(ccc31)-c1csc(n1)C[C@H](NC(=O)[C@H]1[C@@H]3COC[C@@H]31)C(=O)N1CCC[C@H](N1)C(=O)OCC(C)(C)C2	1 h	0.9 ×10⁻⁶ cm/s	7.37	8.31	5.2	6.67	9.10	63%	5.08	7.12	9.30	7	8.68	6.67 mL/min/kg	6.76	8.39	8.72	9.05	7.51	20 µM (≈ 17.3 µg/mL)	bioavailability [4]: 88%; clearance [20]: 6.67 mL/min/kg
